What all share (format): cell-based
In experiment [1] the target is T1, human TLR9 (Homo sapiens, UniProt Q9NR96).
T1 construct: host or cells: HEK-Blue cells (HEK293-derived reporter line)
T1 sequence (Q9NR96 26-1032): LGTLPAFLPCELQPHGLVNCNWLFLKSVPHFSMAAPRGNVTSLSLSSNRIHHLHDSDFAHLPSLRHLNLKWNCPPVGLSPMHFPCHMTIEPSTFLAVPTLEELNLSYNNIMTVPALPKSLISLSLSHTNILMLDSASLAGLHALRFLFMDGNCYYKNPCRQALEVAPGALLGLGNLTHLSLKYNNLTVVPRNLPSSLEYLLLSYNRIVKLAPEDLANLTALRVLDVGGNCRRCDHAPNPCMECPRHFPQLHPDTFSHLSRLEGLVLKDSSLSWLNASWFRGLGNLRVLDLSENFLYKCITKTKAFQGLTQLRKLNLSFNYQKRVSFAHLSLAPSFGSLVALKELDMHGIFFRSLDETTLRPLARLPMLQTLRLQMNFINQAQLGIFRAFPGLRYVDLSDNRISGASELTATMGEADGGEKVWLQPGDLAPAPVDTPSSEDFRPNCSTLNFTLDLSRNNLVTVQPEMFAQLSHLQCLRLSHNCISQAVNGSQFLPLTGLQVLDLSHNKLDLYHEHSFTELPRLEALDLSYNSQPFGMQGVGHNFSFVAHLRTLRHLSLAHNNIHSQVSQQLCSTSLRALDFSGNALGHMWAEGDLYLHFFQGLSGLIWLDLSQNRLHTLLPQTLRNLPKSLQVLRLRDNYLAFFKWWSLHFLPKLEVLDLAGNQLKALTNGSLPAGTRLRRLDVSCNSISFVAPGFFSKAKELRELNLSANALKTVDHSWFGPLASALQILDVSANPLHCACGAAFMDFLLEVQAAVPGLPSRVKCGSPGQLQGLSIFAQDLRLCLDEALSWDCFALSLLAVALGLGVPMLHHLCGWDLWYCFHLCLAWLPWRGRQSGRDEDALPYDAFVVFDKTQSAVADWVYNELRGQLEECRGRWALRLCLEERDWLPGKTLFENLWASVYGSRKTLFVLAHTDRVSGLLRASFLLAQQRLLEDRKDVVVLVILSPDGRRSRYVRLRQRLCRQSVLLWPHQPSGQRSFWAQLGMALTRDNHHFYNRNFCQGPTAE
Nature of the experiment: TLR9 inhibition reporter assay (HEK-Blue cells, secreted embryonic alkaline phosphatase reporter). The note with it: HEK-Blue cells overexpressing human TLR9, stimulated with ODN2006 5 nM. Summed up:
(§1)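 Inhibitors are tested in dose response (0.05 nM–50 μM) on HEK-Blue reporter cells expressing human TLR7, TLR8 or TLR9. After 30 min at room temperature, each line is stimulated with its own agonist (gardiquimod 7.5 μM, R848 15.9 μM or ODN2006 5 nM, final) and SEAP is measured 22 h later.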

Experiment [2] deals with T2, human TLR7 (Homo sapiens, UniProt Q9NYK1).
T2 construct: host or cells: HEK-Blue cells (HEK293-derived reporter line)
T2 sequence (Q9NYK1 27-1049): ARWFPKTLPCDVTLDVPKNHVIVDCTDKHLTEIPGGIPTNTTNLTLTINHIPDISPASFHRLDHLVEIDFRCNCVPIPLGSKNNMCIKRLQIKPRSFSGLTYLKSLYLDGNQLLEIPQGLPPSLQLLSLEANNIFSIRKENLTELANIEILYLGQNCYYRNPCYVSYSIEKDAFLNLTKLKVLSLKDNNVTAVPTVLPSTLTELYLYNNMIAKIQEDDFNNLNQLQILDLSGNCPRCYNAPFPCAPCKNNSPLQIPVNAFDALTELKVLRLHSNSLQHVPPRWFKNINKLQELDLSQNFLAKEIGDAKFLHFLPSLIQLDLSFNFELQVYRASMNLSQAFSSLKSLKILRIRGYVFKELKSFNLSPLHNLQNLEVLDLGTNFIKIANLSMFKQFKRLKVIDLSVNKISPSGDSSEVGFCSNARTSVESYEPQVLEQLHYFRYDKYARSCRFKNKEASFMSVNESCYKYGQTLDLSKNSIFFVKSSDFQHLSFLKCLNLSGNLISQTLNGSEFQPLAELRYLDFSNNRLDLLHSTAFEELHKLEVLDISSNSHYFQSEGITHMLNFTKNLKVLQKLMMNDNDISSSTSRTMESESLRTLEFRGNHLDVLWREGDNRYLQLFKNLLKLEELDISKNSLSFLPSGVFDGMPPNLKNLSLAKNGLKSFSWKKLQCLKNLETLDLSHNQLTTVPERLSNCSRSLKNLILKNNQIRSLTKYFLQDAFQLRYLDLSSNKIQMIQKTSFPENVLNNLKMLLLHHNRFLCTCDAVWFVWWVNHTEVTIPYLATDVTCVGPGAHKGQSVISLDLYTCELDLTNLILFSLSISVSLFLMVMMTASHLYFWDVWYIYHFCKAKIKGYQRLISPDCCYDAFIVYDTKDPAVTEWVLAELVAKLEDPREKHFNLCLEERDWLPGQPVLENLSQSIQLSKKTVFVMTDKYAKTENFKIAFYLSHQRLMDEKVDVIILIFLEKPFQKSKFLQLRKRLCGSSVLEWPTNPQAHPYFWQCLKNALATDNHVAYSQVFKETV
Kind of experiment: TLR7 inhibition reporter assay (HEK-Blue cells, secreted embryonic alkaline phosphatase reporter). Conditions: HEK-Blue cells overexpressing human TLR7, stimulated with gardiquimod 7.5 μM; read-out: TLR 7 IC50. The essentials: as §1

The target in experiment [3] is T3, human TLR8 (Homo sapiens, UniProt Q9NR97).
T3 construct: host or cells: HEK-Blue cells (HEK293-derived reporter line)
T3 sequence (Q9NR97 27-1041): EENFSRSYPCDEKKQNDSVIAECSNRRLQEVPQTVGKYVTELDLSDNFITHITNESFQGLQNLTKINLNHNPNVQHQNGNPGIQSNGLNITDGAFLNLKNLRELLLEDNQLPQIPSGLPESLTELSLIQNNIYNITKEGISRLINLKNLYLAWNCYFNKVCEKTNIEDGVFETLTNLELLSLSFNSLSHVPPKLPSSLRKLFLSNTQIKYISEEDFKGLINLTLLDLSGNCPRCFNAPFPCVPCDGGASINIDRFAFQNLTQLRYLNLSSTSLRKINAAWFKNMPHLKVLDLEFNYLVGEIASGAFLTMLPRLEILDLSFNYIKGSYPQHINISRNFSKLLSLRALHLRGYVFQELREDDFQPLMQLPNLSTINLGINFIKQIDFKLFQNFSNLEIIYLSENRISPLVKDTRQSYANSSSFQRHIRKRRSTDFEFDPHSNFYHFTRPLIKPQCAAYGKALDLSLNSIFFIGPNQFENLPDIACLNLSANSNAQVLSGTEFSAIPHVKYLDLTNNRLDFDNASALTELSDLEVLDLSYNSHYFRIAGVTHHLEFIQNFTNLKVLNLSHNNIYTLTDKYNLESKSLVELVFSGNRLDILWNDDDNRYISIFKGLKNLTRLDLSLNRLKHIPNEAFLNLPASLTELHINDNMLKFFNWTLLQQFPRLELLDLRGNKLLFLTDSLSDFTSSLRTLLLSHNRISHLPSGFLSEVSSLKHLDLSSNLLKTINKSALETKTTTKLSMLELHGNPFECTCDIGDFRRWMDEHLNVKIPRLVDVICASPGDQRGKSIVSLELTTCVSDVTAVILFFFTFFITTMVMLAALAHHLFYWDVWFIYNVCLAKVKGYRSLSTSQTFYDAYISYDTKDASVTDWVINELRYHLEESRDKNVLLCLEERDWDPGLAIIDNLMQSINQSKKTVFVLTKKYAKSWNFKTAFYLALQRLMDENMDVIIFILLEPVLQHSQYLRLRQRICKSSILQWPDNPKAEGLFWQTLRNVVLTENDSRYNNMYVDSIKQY
Kind of experiment: TLR8 inhibition reporter assay (HEK-Blue cells, secreted embryonic alkaline phosphatase reporter). Conditions: HEK-Blue cells overexpressing human TLR8, stimulated with R848 15.9 μM; read-out: TLR 8 IC50. The essentials:
as §1

[4] abbreviates: 22 hour incubation, reporter readout.

Read-outs that look alike come from different tables or passages of the source.

On to `CC(C)N1C2CCC1CC(N1CCC(c3ccc4nc(-c5ccc(S(C)(=O)=O)cc5)n(C)c4c3F)CC1)C2` (single isomer, unassigned) [Example 104, 7-fluoro-6-(1-(8-isopropyl-8-azabicyclo[3.2.1]octan-3-yl)piperidin-4-yl)-1-methyl-2-(4-(methylsulfonyl)phenyl)-1H-benzo[d]imidazole], for which the IC50 in experiment [1] (setting [4]) was 0.14 µM; in experiment [2] it was 39.2 µM; in experiment [3], > 50 µM.
For `CC(C)N1C2CCC1CC(N1CCC(c3cc(F)c4nc(-c5ccc(S(C)(=O)=O)cc5)n(C)c4c3)CC1)C2` (single isomer, unassigned) [Example 106, 4-fluoro-6-(1-(8-isopropyl-8-azabicyclo[3.2.1]octan-3-yl)piperidin-4-yl)-1-methyl-2-(4-(methylsulfonyl)phenyl)-1H-benzo[d]imidazole], the IC50 in experiment [1] (setting [4]) was 0.39 µM; in experiment [1] (read-out: TLR 9 IC50), 0.387 µM; in experiment [2], 35.1 µM; in experiment [3], > 50 µM.
On the same counts, the results for `CC(C)N1C2CCC1CC(N1CCC(c3cc(F)c4nc(-c5ccc(S(C)(=O)=O)cc5)n(C)c4c3)CC1)C2` (single isomer, unassigned) [Example 107, 4-fluoro-6-(1-(8-isopropyl-8-azabicyclo[3.2.1]octan-3-yl)piperidin-4-yl)-1-methyl-2-(4-(methylsulfonyl)phenyl)-1H-benzo[d]imidazole] are 0.27 µM, 0.269 µM, 5.8 µM and > 50 µM.
The matching figures for `Cn1c(-c2ccc(S(C)(=O)=O)cc2)nc2c(F)cc(C3CCN(C4CCCN(C5COC5)CC4)CC3)cc21` (single isomer, unassigned) [Example 108, 4-fluoro-1-methyl-2-(4-(methylsulfonyl)phenyl)-6-(1-(1-(oxetan-3-yl)azepan-4-yl)piperidin-4-yl)-1H-benzo[d]imidazole]: 0.26 µM, 0.0258 µM, 24 µM and > 50 µM.
For `Cn1c(-c2ccc(S(C)(=O)=O)cc2)nc2c(F)cc(C3CCN(C4CCCN(C5COC5)CC4)CC3)cc21` (single isomer, unassigned) [Example 109, 4-fluoro-1-methyl-2-(4-(methylsulfonyl)phenyl)-6-(1-(1-(oxetan-3-yl)azepan-4-yl)piperidin-4-yl)-1H-benzo[d]imidazole], the concentration for half-maximal inhibition (IC50) in experiment [1] (setting [4]) was 0.09 µM; in experiment [2], 17.2 µM; in experiment [3] it was > 50 µM.
As for `Cc1cc(C2CCN(C3CCCN(C4CCC4)CC3)CC2)cc2c1nc(-c1ccc(S(C)(=O)=O)cc1)n2C` (single isomer, unassigned) [Example 110, 6-(1-(1-cyclobutylazepan-4-yl)piperidin-4-yl)-1,4-dimethyl-2-(4-(methylsulfonyl)phenyl)-1H-benzo[d]imidazole], the IC50 is 0.083 µM in experiment [1] (setting [4]), 1.2 µM in experiment [2] and > 50 µM in experiment [3].
The matching figures for `Cc1cc(C2CCN(C3CCCN(C4CCC4)CC3)CC2)cc2c1nc(-c1ccc(S(C)(=O)=O)cc1)n2C` (single isomer, unassigned) [Example 111, 6-(1-(1-cyclobutylazepan-4-yl)piperidin-4-yl)-1,4-dimethyl-2-(4-(methylsulfonyl)phenyl)-1H-benzo[d]imidazole]: 0.024 µM, 1.5 µM and > 50 µM.
On the same counts, the results for `CC(C)N1CCCC(N2CCC(c3ccc4nc(-c5ccc(S(C)(=O)=O)cc5)n(C)c4c3F)CC2)CC1` (single isomer, unassigned) [Example 113, 7-fluoro-6-(1-(1-isopropylazepan-4-yl)piperidin-4-yl)-1-methyl-2-(4-(methylsulfonyl)phenyl)-1H-benzo[d]imidazole] are 0.032 µM, > 50 µM and > 50 µM.

These data come from patent publication US12492188B2, “1H-benzo[D]imidazole derivatives as TLR9 inhibitors for the treatment of fibrosis” (BRISTOL-MYERS SQUIBB COMPANY, priority 2020, dated 2025).
